In patent US12371454B2, “Cyclic peptide compound having Kras inhibitory action” (priority 2019, dated 2025):
Starred links: 1 amine or outer side, 2 acyl side, 3 side chain; linkers in the order of their positions; H or OH if unused. Positions of bridges follow the written chain, without caps; N, C: chain ends. Non-standard residues stand in square brackets, D forms with d. Residues, ends and D or L forms follow the SMILES beside them. *: point of attachment. hPhe(3-Cl-4-CF3) = N[C@@H](CCc1ccc(C(F)(F)F)c(Cl)c1)C(=O)O; hPhe(3-F,4-CF3) = N[C@@H](CCc1ccc(C(F)(F)F)c(F)c1)C(=O)O; NMePhe(4-CF3) = CN[C@@H](Cc1ccc(C(F)(F)F)cc1)C(=O)O; NMedβ3hAla = C[C@H](CC(=O)[*:2])N(C)[*:1]; NMeGly(cPent) = CN[C@H](C(=O)O)C1CCCC1; Pro(4,4-F2) = O=C(O)[C@@H]1CC(F)(F)CN1; NMeCha = CN[C@@H](CC1CCCCC1)C(=O)O; NMeAhp(2) = CCCCC[C@H](NC)C(=O)O; NMeChg = CN[C@H](C(=O)O)C1CCCCC1; NMeI = CC[C@H](C)[C@H](NC)C(=O)O; NMeD = CN[C@@H](CC(=O)O)C(=O)O; NMeL = CN[C@@H](CC(C)C)C(=O)O; NMeV = CN[C@H](C(=O)O)C(C)C; Azetidin(1-yl) = C1CN(*)C1; NMeS = CN[C@@H](CO)C(=O)O; Morpholide = C1CN(*)CCO1; NMeA = CN[C@@H](C)C(=O)O; NMeAib = CNC(C)(C)C(=O)O; Piperidide = C1CCN(*)CC1; Pyrrolidide = C1CCN(*)C1; Ac5c = NC1(C(=O)O)CCCC1; Aze = O=C(O)[C@@H]1CCN1; Sar = CNCC(=O)O; Propyl = CCC*

Test system: Human pancreatic cancer cell line AsPC-1
Experiment: Measurement of AsPC-1 cell growth inhibition (AsPC-1 CGI)
Type: cell-based
Details: 96 h
Procedure: Measurement of AsPC-1 Cell Growth Inhibition (AsPC-1 CGI)
Test compounds were serially diluted with dimethyl sulfoxide, and 200 nL was then dispensed to a U-bottom 96-well plate using Labcyte Echo. Human pancreatic cancer cell line AsPC-1 was suspended in RPMI-1640 medium supplemented with 15% fetal bovine serum to prepare a cell suspension at 1000 cells/100 μL. The cell suspension was dispensed to a plate containing a test compound at 100 μL per well and incubated at 37° C. in a 5% carbon dioxide gas incubator. 96 hours later, 80 μL of CellTiter-Glo (Promega) was added to each well and […] was measured.

SMILES | IC50
CC[C@H](C)[C@@H]1NC(=O)[C@H](CC(C)C)N(C)C(=O)C[C@@H](C(=O)N2CCC2)N(C)C(=O)[C@H](C(C)C)N(C)C(=O)C2(CCCC2)NC(=O)[C@@H]2CCCN2C(=O)[C@H](CCc2ccc(C(F)(F)F)c(Cl)c2)NC(=O)CN(C)C(=O)[C@H](CC2CCCCC2)N(C)C(=O)[C@@H]2CCN2C(=O)[C@H](C)N(C)C1=O [Compound 256] ([NMeL]I[NMeA][Aze][NMeCha][Sar][hPhe(3-Cl-4-CF3)]P[Ac5c][NMeV][NMeD]-{Azetidin(1-yl)}; lactam N-11) | 100 to 500 nM
CCCCC[C@H]1C(=O)N[C@@H]([C@@H](C)CC)C(=O)N[C@@H](C)C(=O)N2CC[C@H]2C(=O)N(C)[C@@H](CC2CCCCC2)C(=O)N(C)CC(=O)N[C@@H](CCc2ccc(C(F)(F)F)c(Cl)c2)C(=O)N2CCC[C@H]2C(=O)NC2(CCCC2)C(=O)N(C)[C@@H](C2CCCC2)C(=O)N(C)[C@H](C(=O)N2CCOCC2)CC(=O)N1C [Compound 263] ([NMeAhp(2)]IA[Aze][NMeCha][Sar][hPhe(3-Cl-4-CF3)]P[Ac5c][NMeGly(cPent)][NMeD]-Morpholide; lactam N-11) | 20 to 50 nM
CC[C@H](C)[C@@H]1NC(=O)[C@H](CC(C)C)N(C)C(=O)C[C@@H](C(=O)N2CCCCC2)N(C)C(=O)[C@H](C2CCCCC2)N(C)C(=O)C2(CCCC2)NC(=O)[C@H](C)N(C)C(=O)[C@H](CCc2ccc(C(F)(F)F)c(Cl)c2)NC(=O)CN(C)C(=O)[C@H](CC2CCCCC2)N(C)C(=O)CN(C)C(=O)CN(C)C1=O [Compound 294] ([NMeL]I[Sar][Sar][NMeCha][Sar][hPhe(3-Cl-4-CF3)][NMeA][Ac5c][NMeChg][NMeD]-Piperidide; lactam N-11) | 100 to 500 nM
CC[C@H](C)[C@@H]1NC(=O)[C@H](CC(C)C)N(C)C(=O)C[C@@H](C(=O)N2CCCC2)N(C)C(=O)[C@H]([C@@H](C)CC)N(C)C(=O)C2(CCCC2)NC(=O)[C@@H]2CCCN2C(=O)[C@H](CCc2ccc(C(F)(F)F)c(F)c2)NC(=O)CN(C)C(=O)[C@H](C2CCCC2)N(C)C(=O)[C@@H]2CCN2C(=O)[C@H](C)N(C)C1=O [Compound 313] ([NMeL]I[NMeA][Aze][NMeGly(cPent)][Sar][hPhe(3-F,4-CF3)]P[Ac5c][NMeI][NMeD]-Pyrrolidide; lactam N-11) | 20 to 50 nM
CC[C@H](C)[C@@H]1NC(=O)[C@H](CC(C)C)N(C)C(=O)C[C@@H](C)N(C)C(=O)[C@H](C2CCCCC2)N(C)C(=O)C2(CCCC2)NC(=O)[C@@H]2CC(F)(F)CN2C(=O)[C@H](CCc2ccc(C(F)(F)F)c(Cl)c2)NC(=O)CN(C)C(=O)[C@H](Cc2ccc(C(F)(F)F)cc2)N(C)C(=O)[C@@H]2CCN2C(=O)[C@H](C)N(C)C1=O [Compound 319] (cyclo([Ac5c][NMeChg][NMedβ3hAla][NMeL]I[NMeA][Aze][NMePhe(4-CF3)][Sar][hPhe(3-Cl-4-CF3)][Pro(4,4-F2)])) | 100 to 500 nM
CC[C@H](C)[C@@H]1NC(=O)[C@H](C)N(C)C(=O)C[C@@H](C)N(C)C(=O)[C@H](C(C)C)N(C)C(=O)C(C)(C)N(C)C(=O)[C@@H]2CCCN2C(=O)[C@H](CCc2ccc(C(F)(F)F)c(Cl)c2)NC(=O)CN(C)C(=O)[C@H](CC2CCCCC2)N(C)C(=O)[C@@H]2CCN2C(=O)[C@H](C)N(C)C1=O [Compound 341] (cyclo([Aze][NMeCha][Sar][hPhe(3-Cl-4-CF3)]P[NMeAib][NMeV][NMedβ3hAla][NMeA]I[NMeA])) | 100 to 500 nM
CC[C@H](C)[C@@H]1NC(=O)[C@H](CC(C)C)N(C)C(=O)C[C@@H](C)N(C)C(=O)[C@H](C2CCCCC2)N(C)C(=O)C2(CCCC2)NC(=O)[C@@H]2CCCN2C(=O)[C@H](CCc2ccc(C(F)(F)F)c(Cl)c2)NC(=O)CN(C)C(=O)[C@H](Cc2ccc(C(F)(F)F)cc2)N(C)C(=O)[C@@H]2CCN2C(=O)[C@H](C)N(C)C1=O [Compound 348] (cyclo([Ac5c][NMeChg][NMedβ3hAla][NMeL]I[NMeA][Aze][NMePhe(4-CF3)][Sar][hPhe(3-Cl-4-CF3)]P)) | 100 to 500 nM
CC[C@H](C)[C@@H]1NC(=O)[C@H](CC(C)C)NC(=O)C[C@@H](C(=O)N2CCCCC2)N(C)C(=O)[C@H](C2CCCCC2)N(C)C(=O)C2(CCCC2)NC(=O)[C@@H]2CCCN2C(=O)[C@H](CCc2ccc(C(F)(F)F)c(Cl)c2)NC(=O)CN(C)C(=O)[C@H](CC2CCCCC2)N(C)C(=O)CN(C)C(=O)CN(C)C1=O [Compound 356] (LI[Sar][Sar][NMeCha][Sar][hPhe(3-Cl-4-CF3)]P[Ac5c][NMeChg][NMeD]-Piperidide; lactam N-11) | 100 to 500 nM
CCCOC[C@H]1C(=O)N(C)CC(=O)N[C@@H](CCc2ccc(C(F)(F)F)c(Cl)c2)C(=O)N2CCC[C@H]2C(=O)NC2(CCCC2)C(=O)N(C)[C@@H](C2CCCC2)C(=O)N(C)[C@H](C)CC(=O)N(C)[C@@H](CC(C)C)C(=O)N[C@@H]([C@@H](C)CC)C(=O)N(C)[C@@H](C)C(=O)N2CC[C@H]2C(=O)N1C [Compound 366] (cyclo([Ac5c][NMeGly(cPent)][NMedβ3hAla][NMeL]I[NMeA][Aze][NMeS](Propyl)[Sar][hPhe(3-Cl-4-CF3)]P)) | 20 to 50 nM
